Article PMC4506598, “A small molecular agent YL529 inhibits VEGF-D-induced lymphangiogenesis and metastasis in preclinical tumor models in addition to its known antitumor activities” (BMC Cancer, 2015)
Read-outs that look alike come from different tables or passages of the source.

Key:
HLECs [1] = assay: transwell invasion assay; assay type: cell-based; conditions: Homo sapiens, read-out: inhibition of cell invasion
Description: Transwell migration assay was adopted to indicate the anti-metastasis effect of YL529 [26]. Briefly, the transwell were pre-coated with 25 % Matrigel Matrix containing growth factors (BD Biosciences, Bedford, MA) for 30 min at 37 °C. And then the bottom chambers were filled with 600 μl ECM medium and the top chambers were seeded with 4 × 10^4 cells HLECs (100 μl/well). The top and bottom chambers were incubated for another 24 h. Then cells on the top surface of the membrane were scraped with a cotton swab. Cells on the bottom side of the membrane were fixed with 4 % paraformaldehyde and stained with 0.1 % crystal violet (Sigma-Aldrich, USA). An inverted microscope (Zeiss, Axiovert 200, Germany) was used to obtain the images and the invading cells were quantified.
To further measure the effect of YL529 on HLECs invasion, we used a transwell assay and measured the number of HLECs that passed through a membrane barrier following treatment with various concentrations of YL529 [29].

VEGF-D-LL/2 tumors [2] = assay: VEGF-D-LL/2 syngeneic s.c. tumor model; assay type: in vivo
Description: (§1) Seven-week-old female C57 BL/6 mice (Beijing animal center, Beijing, China) were used. VEGE-D-LL/2 cells (1 × 10^6) were injected intramuscularly and subcutaneously in hind limb of mice. The mice were randomized into 5 groups (n = 10 per groups) and orally administered 37.5, 75 and 150 mg/kg/day YL529, vehicle and saline alone (N.S.), respectively for 14 days when tumors became visible the 10th day after cells were implanted. Tumor growth and mice weight was monitored every 3 days. When animals were sacrificed with CO2 gas at the end of drug administration, tumor tissues, lung organs and local lymph nodes were removed, weighted and calculated by manual. Tumor size was determined by measuring the largest and perpendicular diameters every 3 days, tumor volume was calculated using the formula: volume (mm^3) = 0.5 × length × width^2. In addition, the same subcutaneously tumor models were used to monitor the survival time of experimental mice after drug administration. All animals experiments performed were in accordance with the guidelines of the institute’s Animal Care and Use Committee of Sichuan University (Chengdu, China).
(§2) Tumor tissues from vehicle and 150 mg/kg YL529 groups were fixed in 4 % paraformaldehyde, dehydrated and embedded in paraffin [27]. Sections of these tissues were subsequently incubated with LYVE-1 and corresponding second antibodies and visualized using peroxidase-DAB. TUNEL staining was also performed for fixed tissues (Promega, USA). Quantification was done as described. Briefly, the microvessel counting was done in representative 200× fields or three high-power (400×) fields of the highest vascular density.
(§3) Based on the safety profile and the in vivo pharmacokinetics of YL529, chronic oral administration of YL529 at daily dosages of 37.5 ~ 150 mg/kg/day was chosen to treat the mice with VEGF-D-LL/2 tumors (syngeneic s.c. and muscle models).

HLECs [3] = assay: CCK-8 cell viability assay; assay type: cell-based; conditions: Homo sapiens, 48 h, read-out: IC50, proliferation of HLECs
Description: (§4) Cell viability assays were performed using CCK-8 kit. Briefly, VEGF-D-LL/2 cells, parental LL/2 cells and HLECs were treated with various concentrations of YL529 in 96-well culture plates for 48 h. CCK-8 was added to the cells and the plate was incubated for an additional 2–4 h. The optical density (OD) was then measured at 450 nm using a Spectra MAX M5 microplate spectrophotometer (Molecular Devices, Sunnyvale, CA).
CCK-8 assay was used to evaluate the potential proliferation inhibition effect of HLECs after treated with YL529 or vehicle for 48 h.

VEGF-D-LL/2 tumors [4] = assay: VEGF-D-LL/2 syngeneic muscle tumor metastasis model; assay type: in vivo, C57 BL/6 mice; conditions: for percent of mice with local lymph node metastasis: vehicle 80 % ~ 90 %
Description: as §1, §2, §3

VEGF-D-LL/2 cells [5] = assay: western blot of p-JNK, Bax, Bcl-2 in VEGF-D-LL/2 cells; assay type: cell-based, murine
Description: (§5) Standard western blot analysis was performed. Briefly, Cell lysates were washed with phosphate buffered saline (PBS) and lysed in RIPA (radioimmunoprecipitation assay) buffer. Then lysates were centrifuged at 12000 g for 30 min at 4 °C. The Bio-Rad Protein Assay kit (Bio-Rad Laboratories) was used to determine the samples protein concentration according to the manufacturers’ recommendations. The lysates were dissolved in 5 × SDS sample buffer and denatured, then subjected to 6 % to 12 % SDS-PAGE (sodium dodecyl sulfate polyacrylamide gel electrophoresis) according to molecular weight and transferred onto PVDF (polyvinylidene fluoride) (Bio-Rad, Hercules, CA) membranes. Membranes were blocked for 1 h in 5 % dried milk in TBS/T at room temperature and incubated overnight at 4 °C with the primary antibodies and horseradish peroxidase-conjugated secondary antibodies. Protein bands were visualized with enhanced chemiluminescent substrate (Amersham Biosciences Corp., Piscataway, NJ).

VEGFR-3 = conditions: 10 μM; cited from earlier work
VEGFR2 = conditions: 10 μM; cited from earlier work
parental LL/2 cells = assay: CCK-8 cell viability assay; assay type: cell-based, murine; conditions: Mus musculus, 48 h, read-out: IC50, proliferation of parental LL/2 cells
Description: Human lymphatic endothelial cells (HLECs) were purchased from the ScienCell™ Research Laboratories and cultured in endothelial cell medium (ECM) containing 5 % fetal bovine serum (FBS), 1 % endothelial cell growth supplement (ECGS), 100 IU/mL penicillin and 100 μg/mL streptomycin. Lewis lung carcinoma LL/2 cells were obtained from American Type Culture Collection (ATCC) and cultured in DMEM containing 10 % FBS, 100 IU/mL penicillin and 100 μg/mL streptomycin. Subcultures were performed with trypsin-EDTA. All cells were incubated in an atmosphere of 5 % CO2 at 37 °C.
as §4
(§6) VEGF-D-LL/2 cells were previously established by transfection with the pcDNA3.1 (+) expression vector containing mouse VEGF-D [31]. Similar to the previous data from our group, this study uses a VEGF-D antibody that detects the mature form of VEGF-D, because the fully mature cleaved form of 21 kD has the greatest affinity for the receptors, and can bind and activate not only VEGFR-2 but also VEGFR-3.

[6] = high-dose toxicity, organ parameters in rats; assay type: in vivo; conditions: SD rats; for Heart index / Kidney index / Liver index / Lung index / Spleen index: oral 6000 mg/kg
[7] = pharmacokinetics after oral administration in mice; assay type: in vivo, C57 BL/6 mice; conditions: for half-life: po
Description: C57 BL/6 mice (n = 3 per time point) were administered 150 mg/kg YL529 orally. Blood samples of the mice were collected at appropriate intervals and the plasma concentration of YL529 was analyzed by HPLC (Waters, MA, USA). The pharmacokinetic characteristics and parameters were analyzed using Pharmacokinetic Software of Drug and Statistics (DAS, edited and published by the Mathematical Pharmacology Professional Committee of China, Shanghai, China).

safety profile in mice = assay type: in vivo; conditions: 150 mg/kg daily for 18 days
Description: To evaluate the safety profile of YL529 (150 mg/kg) in vivo, we have observed the gross measures such as weight loss, life span, behavior and feedings. Moreover, we have also investigated the mortality and clinical signs of C57BL/6 mice throughout oral administration period. In addition, blood samples and heart, liver, spleen, lung, and kidney tissues of mice were collected; the histopathological, serum biochemistry and hematological analysis were done to observe the possible pathological changes. In addition, we also evaluated the safety profiles of YL529 after oral administration with high dose (6000 mg/kg) for 14 days.
Currently, side effects are the prevalent shortcomings of anticancer drugs.

HLECs [8] = assay: tube formation assay; assay type: cell-based; conditions: Homo sapiens, 6 h
Description: The antilymphogenic effects of YL529 were analyzed in vitro using a tube-formation assay in HLECs. Briefly, 96-well plate was pre-incubated with 100 μl per well of Matrigel Matrix at 37 °C for 30 min, HLECs were seeded at a density of 3 × 10^4 cells per well in ECM medium. And after cultured in the presence or absence of designed concentrations of YL529 on Matrigel Matrix at 37 °C another 6 h, tube formation by endothelial cells was evaluated and photographed under an inverse microscope (Zeiss, Axiovert 200, Germany).
To further understand the mechanism of the anti-lymphogenic effect of YL529, the antilymphogenic tube formation effect of YL529 was analyzed with cultured HLECs in vitro [30]. […] In great contrast, HLECs without YL529 treatment spread and aligned with each other and formed a rich meshwork of branching capillary-like tubules within 6 h (Fig. 2c).

p-VEGFR-3 = assay: western blot of VEGFR-3/p-VEGFR-3 in HLECs; assay type: cell-based, human; conditions: after 2 h of treatment
Description: as §5
To gain in-depth insight into the molecular mechanism of anti-lymphangiogenesis effects of YL529, the expression levels of VEGFR-3/p-VEGFR-3 in HLECs were analyzed by western blotting in vitro.

HLECs [9] = assay: scratch-induced (wound healing) migration assay; assay type: cell-based; conditions: Homo sapiens, read-out: inhibition of cell migration
Description: The anti-metastasis effect of YL529 was determined using a scratch-induced cell migration assay in vitro [24, 25]. Briefly, 1 × 10^5 HLECs were plated in 6 well plates and synchronized by serum-free ECM medium for 8 h, then used a micropipette tip to create a 2 mm-wide linear gap. Cells were washed to remove non-adherent cells and further incubated with fresh ECM medium containing or lacking YL529. An inverted microscope (Carl Zeiss, Germany) was used to photograph after YL529 treatment for another 48 h.
We next examined the effects of YL529 on HLECs migration using a wound healing migration assay.

VEGF-D-LL/2 cells [10] = assay: CCK-8 cell viability assay; assay type: cell-based, murine; conditions: Mus musculus, 48 h, read-out: IC50, proliferation of VEGF-D-LL/2 cells
Description: The transfected murine LL/2 Lewis lung carcinoma cells with the pcDNA3.1 (+) expression vector containing mouse VEGF-D (VEGF-D-LL/2 cells) or pcDNA3.1 (vector alone) were transfected as reported before obtained in our laboratory. The cell lines were maintained in an atmosphere of 5 % CO2 at 37 °C in cell culture medium DMEM supplemented with 10 % fetal bovine serum. Western blot analysis was performed to analyze the expression of recombinant VEGF-D of these cells.
as §4, §6

[11] = C57 BL/6, mouse, plasma, single dose 150 mg/kg

CNC(=O)c1cc(Oc2ccc(NC(=O)c3cccc(C(F)(F)F)c3)cc2)ccn1 [YL529, N-methyl-4-(4-(3-(trifluoromethyl)benzamido)phenoxy)picolinamide4-methylbenzenesulfonate]
inhibition at 2.5 µM (HLECs [1]; 2.5 μM, compared with vehicle): 28% | inhibition at 5 µM (HLECs [1]; 5 μM): 65.9% | inhibition at 10 µM (HLECs [1]; 10 μM): 90.2% | apoptotic tumor cells (TUNEL), increase vs. vehicle (VEGF-D-LL/2 tumors [2]; 150 mg/kg): 20 fold | mice survived to 54 days (VEGF-D-LL/2 tumors [2]; 150 mg/kg group): 60% | mice survived to 40 days (VEGF-D-LL/2 tumors [2]; YL529 treated groups): 90% | body weight (VEGF-D-LL/2 tumors [2]; at this dosage): no loss of body weight | tumor volume reduction (VEGF-D-LL/2 tumors [2]; compared with vehicle-treated group, oral, dose not given): 66.22% | IC50 (HLECs [3]): 5.5 µM | number of mice with lung metastasis and inguinal lymph node metastasis (VEGF-D-LL/2 tumors [4]): significantly reduced | percent of mice with local lymph node metastasis (VEGF-D-LL/2 tumors [4]; 37.5 mg/kg group): 50% | lymphangiogenesis in tumor tissues (LYVE-1 staining), change vs vehicle group (VEGF-D-LL/2 tumors [4]; 150 mg/kg for 14 days): 34.71% | percent of mice with local lymph node metastasis (VEGF-D-LL/2 tumors [4]; 150 mg/kg group): 20% | body weight (VEGF-D-LL/2 tumors [4]; end of drug administration): no loss of body weight | expression level of Bcl-2 (VEGF-D-LL/2 cells [5]): increased | expression level of p-JNK (VEGF-D-LL/2 cells [5]): decreased | inhibition of VEGFR-3 activity (VEGFR-3): 97% | inhibition of VEGFR2 activity (VEGFR2): inhibited VEGFR2 activity | IC50 (parental LL/2 cells): 9.6 µM | weight changes of major organs (heart, liver, spleen, lung, kidney and brain) ([6]; 6000 mg/kg daily for 14 days): no obvious weight changes | Heart index ([6]; female): 0.42 ± 0.09% | Kidney index ([6]; female): 0.38 ± 0.09% | Liver index ([6]; female): 3.13 ± 0.09% | Lung index ([6]; female): 0.43 ± 0.06% | Spleen index ([6]; female): 0.25 ± 0.03% | Heart index ([6]; male): 0.42 ± 0.06% | Kidney index ([6]; male): 0.38 ± 0.09% | Liver index ([6]; male): 3.09 ± 0.13% | Lung index ([6]; male): 0.42 ± 0.09% | Spleen index ([6]; male): 0.24 ± 0.04% | Cmax ([7]; C57 BL/6, mouse, plasma, 150 mg/kg, read-out: peak plasma concentration (Cmax)): 18000 ng/mL | half-life ([7]; C57 BL/6, mouse, plasma, 150 mg/kg, single dose 150 mg/kg, read-out: t1/2z (converted)): 4.11 h | half-life ([7]; C57 BL/6, mouse, plasma, 150 mg/kg, single dose 150 mg/kg, read-out: t1/2β (converted)): 6.03 h | AUC(0-inf) [7, 11]: 171 µg·h/mL | AUC(0-t) [7, 11]: 167 µg·h/mL | Tmax [7, 11]: 2 h | Cmax ([7]; single dose 150 mg/kg): 18030 ng/mL | T1/2α ([7]; single dose 150 mg/kg): 1.39 h | body weight loss or tissue damage (safety profile in mice): no obvious body weight loss or tissue damage | inhibition at 10 µM (HLECs [8]): 85.7% | phosphorylation of VEGFR-3 (p-VEGFR-3): potently inhibited | total expression of VEGFR-3 (p-VEGFR-3): no change | inhibition at 2.5 µM (HLECs [9]; 2.5 μM): 44.3% | inhibition at 5 µM (HLECs [9]; 5 μM): 66.8% | inhibition at 10 µM (HLECs [9]; 10 μM): 79.8% | IC50 (VEGF-D-LL/2 cells [10]): 7.2 µM
